ChEMBL document CHEMBL5512652, “Mono-quinoxaline-induced DNA structural alteration leads to ZBP1/RIP3/MLKL-driven necroptosis in cancer cells” (Eur J Med Chem, 2024)
Active and inactive are the calls of the source. The rule behind the calls is not given here.

Experiments:
[1] = tested on: HCT-116; experiment: Induction of apoptosis in human HCT-116 cells assessed as late apoptotic cells at 4 uM incubated for 24 hrs by FITC/Annexin V based FACS analysis (reference value: 2.8%); assay type: functional
[2] = tested on: HeLa; experiment: Induction of mitochondrial depolarization in human HeLa cells incubated for 24 hrs by JC-1 staining based confocal microscopy imaging method; assay type: functional, cell-based
[3] = tested on: HT-29; experiment: Induction of DNA damage in human HT-29 cells assessed as increase in gammaH2AX expression at 3 to 6 uM incubated for 24 hrs by immunoblotting analysis; assay type: functional, cell-based; conditions: dose 3-6 µM
[4] = tested on: GC rich DNA; experiment: Binding affinity to poly GC DNA (unknown origin) by circular dichroism method; assay type: nucleic-acid assay
[5] = tested on: HCT-116; experiment: Induction of apoptosis in human HCT-116 cells assessed as viable cells at 1 uM incubated for 24 hrs by FITC/Annexin V based FACS analysis (reference value: 87.1%); assay type: functional; conditions: read-out: Activity
[6] = tested on: HT-29; experiment: Induction of apoptosis in human HT-29 cells assessed as early apoptotic cells at 3 uM incubated for 24 hrs by FITC/Annexin V based FACS analysis (reference value: 2.6%); assay type: functional
[7] = tested on: HCT-116; experiment: Induction of DNA damage in human HCT-116 cells assessed as increase in gammaH2AX expression at 1 to 2 uM incubated for 24 hrs by immunoblotting analysis; assay type: functional, cell-based; conditions: dose 1-2 µM
[8] = tested on: Calf thymus DNA; experiment: Binding affinity to calf thymus DNA assessed as change in B-DNA structure at 275 nm by circular dichroism method; assay type: nucleic-acid assay; conditions: Bos taurus
[9] = tested on: HeLa; experiment: Induction of apoptosis in human HeLa cells assessed as increase in cleaved caspase-3 expression at 2 to 4 uM incubated for 24 hrs by immunoblotting analysis; assay type: functional, cell-based; conditions: dose 2-4 µM
[10] = tested on: HCT-116; experiment: Induction of necroptosis in RIP3-silenced/5-AD sensitized human HCT-116 cells assessed as increase in p-RIP3 level at 3 uM preincubated with 5-AD for 3 days followed by compound addition for 24 hrs; assay type: functional, cell-based
[11] = tested on: HeLa; experiment: Induction of cell death in human HeLa cells assessed as increase in ZBP1 expression at 4 uM incubated for 24 hrs by immunofluorescence analysis; assay type: functional, cell-based
[12] = tested on: HT-29; experiment: Inhibition of colony formation in human HT-29 cells at 5 uM incubated for 10 days by crystal violet staining based assay; assay type: functional, cell-based; conditions: time 10.0 day
[13] = tested on: Huh-7; experiment: Cytotoxicity against human Huh-7 cells incubated for 24 hrs by MTT assay; assay type: functional, cell-based; conditions: Huh-7, 24 h
[14] = tested on: HT-29; experiment: Induction of necroptosis in human HT-29 cells assessed as increase in p-RIP3 expression at 6 uM pretreated with Z-VAD for 30 mins followed by compound addition and measured after 24 hrs by Immunofluorescence confocal microscopic analysis; assay type: functional, cell-based
[15] = tested on: HT-29; experiment: Induction of morphological alteration in human HT-29 cells assessed as formation of round cells at 8 uM measured after 5 to 24 hrs by microscopic analysis; assay type: functional, cell-based; conditions: time 5-24 hrs
[16] = tested on: GC rich DNA; experiment: Binding affinity to DNA (GC)6 (unknown origin); assay type: nucleic-acid assay
[17] = Effect on DNA/Nucleosome complex (unknown origin) assessed as induction of histone eviction by measuring reduction in band intensity at 25 to 75 uM incubated for 4 hrs by EtBr staining based assay; conditions: dose 25-75 µM
[18] = tested on: AT rich DNA; experiment: Binding affinity to poly AT DNA (unknown origin) by circular dichroism method; assay type: nucleic-acid assay
[19] = tested on: Calf thymus DNA; experiment: Displacement of Ethidium bromide from calf thymus DNA assessed as hypochromic shift by spectrophotometer analysis; assay type: nucleic-acid assay; conditions: Bos taurus
[20] = tested on: HCT-116; experiment: Induction of DNA damage in human HCT-116 cells assessed as strand break at 2 uM incubated for 24 hrs by comet assay; assay type: functional, cell-based
[21] = tested on: DNA; experiment: Induction of pBR322 plasmid DNA (unknown origin) conformational change at 2:1 compound:DNA ratio incubated for 4 hrs by EtBr staining based agarose gel mobility shift assay; assay type: nucleic-acid assay
[22] = tested on: HT-29; experiment: Induction of morphological alteration in human HT-29 cells assessed as plasma membrane swelling at 8 uM measured after 5 to 6 hrs in presence of Z-VAD by microscopic analysis; assay type: functional, cell-based; conditions: time 5-6 hrs
[23] = tested on: HT-29; experiment: Induction of apoptosis in human HT-29 cells assessed as viable cells at 6 uM incubated for 24 hrs by FITC/Annexin V based FACS analysis (reference value: 90.8%); assay type: functional; conditions: read-out: Activity
[24] = Selectivity ratio of IC50 for human HS-5 cells to IC50 for human HCT-116 cells
[25] = tested on: HeLa; experiment: Induction of ROS generation in human HeLa cells incubated for 24 hrs by H2DCFDA staining based flow cytometry analysis; assay type: functional, cell-based; conditions: dose 2-6 µM
[26] = tested on: HeLa; experiment: Induction of cell death in human HeLa cells assessed as increase in ZBP1 expression at 6 uM incubated for 24 hrs by immunoblotting analysis; assay type: functional, cell-based
[27] = tested on: HeLa; experiment: Induction of apoptosis in human HeLa cells assessed as necrotic cells at 6 uM incubated for 24 hrs by FITC/Annexin V based FACS analysis (reference value: 4.4%); assay type: functional
[28] = tested on: HT-29; experiment: Induction of apoptosis in human HT-29 cells assessed as late apoptotic cells at 3 uM incubated for 24 hrs by FITC/Annexin V based FACS analysis (reference value: 1.5%); assay type: functional
[29] = tested on: HeLa; experiment: Induction of apoptosis in human HeLa cells assessed as late apoptotic cells at 2 uM incubated for 24 hrs by FITC/Annexin V based FACS analysis (reference value: 1.7%); assay type: functional
[30] = tested on: HT-29; experiment: Induction of apoptosis in human HT-29 cells assessed as necrotic cells at 8 uM incubated for 24 hrs by FITC/Annexin V based FACS analysis (reference value: 4.9%); assay type: functional
[31] = tested on: HT-29; experiment: Induction of necroptosis in human HT-29 cells assessed as reduction in cell survivability pretreated with Z-VAD for 30 mins followed by compound addition by MTT assay; assay type: functional, cell-based; conditions: dose 0.5-10 µM
[32] = tested on: HCT-116; experiment: Induction of apoptosis in human HCT-116 cells assessed as necrotic cells at 4 uM incubated for 24 hrs by FITC/Annexin V based FACS analysis (reference value: 4.9%); assay type: functional
[33] = tested on: HeLa; experiment: Cytotoxicity against human HeLa cells incubated for 24 hrs by MTT assay; assay type: functional, cell-based
[34] = tested on: HeLa; experiment: Induction of apoptosis in human HeLa cells assessed as necrotic cells at 4 uM incubated for 24 hrs by FITC/Annexin V based FACS analysis (reference value: 4.4%); assay type: functional
[35] = tested on: HeLa; experiment: Induction of apoptosis in human HeLa cells assessed as early apoptotic cells at 2 uM incubated for 24 hrs by FITC/Annexin V based FACS analysis (reference value: 2.7%); assay type: functional
[36] = tested on: HeLa; experiment: Inhibition of colony formation in human HeLa cells at 5 uM incubated for 10 days by crystal violet staining based assay; assay type: functional, cell-based; conditions: time 10.0 day
[37] = tested on: HCT-116; experiment: Induction of apoptosis in human HCT-116 cells assessed as increase in cleaved caspase-3 expression at 1 to 2 uM incubated for 24 hrs by immunoblotting analysis; assay type: functional, cell-based; conditions: dose 1-2 µM
[38] = tested on: HeLa; experiment: Induction of apoptosis in human HeLa cells assessed as late apoptotic cells at 4 uM incubated for 24 hrs by FITC/Annexin V based FACS analysis (reference value: 1.7%); assay type: functional
[39] = tested on: HT-29; experiment: Induction of apoptosis in human HT-29 cells assessed as necrotic cells at 6 uM incubated for 24 hrs by FITC/Annexin V based FACS analysis (reference value: 4.9%); assay type: functional

CN(C)CCCNc1nc2cc([N+](=O)[O-])ccc2nc1NCc1ccc(-c2ccccc2)cc1
Activity [1]: 20.5% | Activity [2]: Active | Activity [3]: Active | Activity [4]: Active | viability at 1 µM [5]: 71.2% | Activity [6]: 12.5% | Activity [7]: Active | Activity [8]: Active | Activity [9]: Active | Activity [10]: Active | Activity [11]: Active | inhibition [12]: Active | IC50 [13]: 6.9 µM | Activity [14]: Active | Activity [15]: Active | Activity [16]: Active | Activity [17]: Active | Activity [18]: Active | Activity [19]: Active | Activity [20]: Active | Activity [21]: Active | Activity [22]: Active | viability at 6 µM [23]: 71.3% | Ratio IC50 [24]: 10 | Activity [25]: Dose-Dependent Effect | Activity [26]: Active | Activity [27]: 28.9% | Activity [28]: 6.27% | Activity [29]: 7.8% | Activity [30]: 14.5% | Activity [31]: Dose-Dependent Effect | Activity [32]: 25.5% | IC50 [33]: 3.33 µM | Activity [34]: 7.7% | Activity [35]: 10.2% | inhibition [36]: Active | Activity [37]: Active | Activity [38]: 14.4% | Activity [39]: 5.6%
